Measured values as given in US20030170826A1, “Peptides for facilitating composite receptor expression and translocation of macromolecules” (priority 2001, published 2003).
Ends that are not written are not given here. {propylamine} = propylamine end group; fluorescein = fluorescein label; fluor = fluorescein label

Experiments:
SupFG1 gene = assay: Chromosomal mutations induced in the SupFG1 gene by triplex forming oligonucleotides; type: cell-based; details: murine cell line with SupFG1 gene in the genome; mutations/total plaques
Method: The ability of TAK16 to facilitate translocation of oligonucleotides designed to form triplex DNA complexes with the SupFG1 sequence was tested in a murine cell line in which the SupFG1 gene is incorporated into the genome. The assay used measures chromosomal mutations induced in the SupFG1 gene by triplex forming oligonucleotides, as measured by mutations/total plaques. The ability of TAK16 to translocate triplex forming oligonucleotides was compared to that of Antennapedia (ANTP)-s-s-oligo complex and the lipid delivery system Gene Porter. The two oligonucleotides tested were AG13 (5′-AGGAA8-propylamine-3′; SEQ ID NO: 58) and AG30 (5′-AGGAAG8TGGTG5AG5AG-propylamine-3′; SEQ ID NO: 59). The groups tested were 1) control (no treatment); 2) AG13 alone; 3) AG13+Gene Porter; 4) AG13-s-s-ANTP; 5) AG13+TAK16; 6) AG30+Gene Porter; and 7) AG30+TAK16. […] It can be seen that the two highest mutation rates occurred in cells treated with AG13+TAK16 (group 5; 40×10^−5) and AG30+TAK16 (group 7; 36×10^−5).

SK-BR-3 cells [1] = details: 200 nM peptide, 15 minutes on ice
Method: FIG. 3, comprising FIG. 3A, FIG. 3B, and FIG. 3C, is a series of images of fluorescent micrographs illustrating the effects of a cell penetrating domain on the efficiency of composite receptors binding.
SK-BR-3 cells were collected and washed and resuspended in DPBS-BSA. Then, 5×10^4 cells were mixed with 200 nM CR1 or delta-CR1 in 40 μl DPBS-BSA and incubated 15 minutes on ice. The cell were then washed in DPBS-BSA, resuspended in 50 μl DPBS-BSA, washed, and applied to slides. Fluorescence was analyzed by fluorescence microscopy using a monochrome filter for FITC. […] FIG. 3C depicts cells incubated with […] CR1.

HeLa cells [2] = assay: Peptide mediated uptake of oligonucleotide FITC-O-24, FACS (FIG. 7); type: cell-based, human; details: peptide 0.0-150 μM, fifteen minutes at room temperature
Method: Flow cytometric analyses of cell subpopulations for these and other experiments described herein were performed using a FACS Vantage flow cytometer (Becton-Dickinson Immunocytometry Systems, San Jose, Calif.). The cells were excited at 488 nm. The FITC fluorescence was collected through a 530/30 nm band pass filter. A minimum of ten thousand cells was interrogated in each sample. Analysis of data was performed using CellQuest software (Becton-Dickinson).
To detect fluorescent labeled molecules associated with cells, the cells were first harvested in DPBS, incubated with a fluorescent labeled molecule of interest at varied concentrations (e.g., oligonucleotide at 50 μM mixed with 1×10^5 cells in 10 μl DPBS), incubated for 15 minutes at room temperature, diluted with 200 μl growth medium, and then analyzed by fluorescence activated cell sorting (FACS).
Next, various peptide sequences and domains were tested for their abilities to facilitate translocation of the oligonucleotide FITC-O-24 across a cell membrane. The peptides tested included: K16 (G4K16; SEQ ID NO: 47); TAT (G4YGRKKRRQR3; SEQ ID NO: 48); TAK8 (G4YGRKKRRQR3G4K8; SEQ ID NO: 49); TAK12 (G4YGRKKRRQR3G4K12; SEQ ID NO: 50) and TAK16/TatK16 (G4YGRKKRRQR3G4K16; SEQ ID NO: 36). HeLa cells (1×10^5) were incubated with the oligonucleotide (0.6 μl, 50 μM) in 10 μl DPBS and various concentrations of the peptides (i.e., 0.0, 1.5, 5.0, 15.0, 50.0, or 150 μM). The cells were incubated in the presence of the mixtures for fifteen minutes at room temperature and then analyzed by FACS.

SK-BR-3 cells [3] = details: 60 nM CR1 or CR1R, 30 minutes on ice, sodium azide
Method: This difference in membrane orientation can be detected using an anti-FITC antibody which cannot penetrate the cellular membrane and therefore can only bind to an FITC on the outer cell surface. For CR1, FITC is an intracellular domain. However, for CR1R, FITC is an extracellular domain. […] SK-BR-3 cells were collected and washed in DPBS with 0.5% BSA (DPBS-BSA), resuspended in DPBS-BSA with 10 mM Sodium Azide, incubated for 20 minutes at room temperature, transferred to ice. 5×10^4 cells were mixed with 60 nM CR1 or CR1R in 20 μl DPBS-BSA, incubated 30 min on ice, washed in DPBS-BSA -Azide, and then resuspended in 50 μl DPBS-BSA-Azide. Then, 50 μl of anti-antibody in DPBS-BSA-Azide (dilution 1:50) was added, the suspension incubated on ice for 30 minutes, and then the cells were washed and applied to slides. Alexa-Fluor 594 fluorescence was analyzed by microscope using monochrome filter for Cy3.5.
This difference in orientation can be detected using an anti-FITC antibody which cannot penetrate the cellular membrane and therefore can only bind FITC which is on the outside cell surface and not inside the cell. […] Alexa-Fluor 594 fluorescence was analyzed using a fluorescent microscope and a monochrome filter for Cy3.5.

SK-BR-3 cells [4] = assay: Localization of fluorescein labeled composite receptor peptides in cells, fluorescence microscopy (FIG. 1); type: cell-based, human; details: 800 nM Tat-K16, 800 nM CR1 or 400 nM CR2, 15 minutes
SK-BR-3 cells [5] = assay: Peptide facilitated translocation of Cy3-O18 oligonucleotide, fluorescence microscopy (FIG. 6); type: cell-based, human; details: for Cy3 label of the oligonucleotide in cells: mixture of Cy3-oligonucleotide and fluorescein labeled peptide
HeLa cells [6] = assay: TAK16 mediated uptake of 83-mer oligonucleotide O-83-FITC, FACS and fluorescence microscopy (FIG. 9, 10); type: cell-based, human; details: TAK16 13.3 μM, O-83-FITC 0.00-1.8 μM
HeLa cells [7] = assay: TAK16 mediated uptake of FITC-O-24, fluorescence microscopy (FIG. 8); type: cell-based, human; details: TAK16 0.00, 0.36, 1.80 or 9.00 μM, FITC-O-24 2.5 μM
HeLa cells [8] = assay: Peptide-oligo mediated uptake of avidin-FITC (FIG. 12); type: cell-based, human
HeLa cells [9] = assay: TAK16 mediated uptake of Cy3 labeled 400 bp double stranded DNA and 5 kb plasmid DNA (FIG. 11); type: cell-based, human
Method: Next, it was decided to determine whether even larger nucleotides, including double stranded (DS) DNA or plasmid DNA, could be transported into a cell. Specifically, it was determined whether TAK16 could facilitate the transport of 400 base pair (bp) double stranded DNA and a 5 kb circular plasmid DNA (pECFP; enhanced cyano fluorescent protein) into cells. The DNAs were labeled with Cy3 reagent (“Label IT” Cy3 Nucleic Acid Labeling Kit; Mirus, Madison, Wis.), according to manufacturer's directions. This protocol usually yields one label per up to ten nucleotides. To this end, HeLa cells were prepared as above and then incubated with 400 ng of plasmid DNA or 60 ng of 400 bp DNA and with TAK16 (12 μM).

HeLa cells [10] = assay: Peptide-oligo mediated uptake of horseradish peroxidase-avidin (HPA), cytochemical analysis (FIG. 13); type: cell-based, human; details: TAK16 and Bio-O-22, 30 minutes at 37° C.
Method: To further determine the ability of a fusion peptide to facilitate transport of a molecule associated with a nucleic acid across a cell membrane, TAK16 was tested for its ability to mediate transport of another protein. In this example, the protein horseradish peroxidase (HRP) was tested. The HRP was conjugated to avidin to yield 120 kD Horseradish Peroxidase-Avidin (HPA). Cells were obtained as above. HPA and Bio-O-22 were added to cells in DPBS at final concentrations of 8 μM and 8 μM, respectively, and then incubated for 15 minutes at room temperature. Then, 2.5 μl of the mix was added to 2×10^5 HeLa cells in 10 μl DPBS. Next, 12.5 μl of 100 μM TAK16 in DPBS was added to the mixture and incubated for 30 minutes at 37° C. Then the cells were washed and applied to slides. Cells on the slides were treated with 30 μl peroxidase suppressor solution to suppress endogenous peroxidase, washed with DPBS, treated with 30 μl Metal Enhanced DAB Substrate Working Solution, incubated for 15 minutes at room temperature, and then subjected to microscopic analysis. […] HPA activity or presence was detected using the DAB kit and the manufacturer's protocol.

[11] = Intracellular transport of beta-galactosidase conjugated to an oligonucleotide; type: cell-based; details: similar experiments
SK-BR-3 cells [12] = assay: Translocation of fluorescein labeled peptides containing a cell penetrating domain (FIG. 5); type: cell-based, human; details: 800 nM peptide, fifteen minutes at 37° C.

5′-AGGAA8-propylamine-3′ (AGGAAAAAAAAA; 3' {propylamine}, sugars by position and backbone not given here) [AG13]
chromosomal mutation frequency induced in the SupFG1 gene (SupFG1 gene): 8 ×10^−5

FITC-G3G3AAL3A19WK8-biotin [delta-CR1]
FITC fluorescence on the cell membrane (SK-BR-3 cells [1]): low level of fluorescence on the cell membrane

G4K16 (GGGGKKKKKKKKKKKKKKKK; FITC-0-24 oligonucleotide cell membrane translocation facilitating peptide) [reference compound]
facilitating transport of FITC-O-24 across the cell membrane (HeLa cells [2]): Neither TAT, nor adapter domain, K16, were able to efficiently facilitate transport

G4YGRKKRRQR3G4K8 (GGGGYGRKKRRQRRRGGGGKKKKKKKK; Human immunodeficiency virus type 1) [TAK8]
facilitating transport of FITC-O-24 across the cell membrane (HeLa cells [2]): decreased ability to facilitate transport

G4YGRKKRRQR3G4K12 (GGGGYGRKKRRQRRRGGGGKKKKKKKKKKKK; Human immunodeficiency virus type 1) [TAK12]
facilitating transport of FITC-O-24 across the cell membrane (HeLa cells [2]): decreased ability to facilitate transport

biotin-G3YGRKKRRQR3G3AAL3A19WK8-FITC [CR1R]
fluorescence of anti-fluorescein (anti-FITC) antibodies, Alexa-Fluor 594 (SK-BR-3 cells [3]): higher

fluor-G3YGRKKRRQR3G3AAL3A19WK8-biotin [CR1]
FITC fluorescence on the cell membrane (SK-BR-3 cells [1]): high levels of fluorescence occur on the cell membrane
localization of fluorescein labeled peptide in the cell (SK-BR-3 cells [4]): localized at the periphery of the cells, in a speckled distribution

fluor-G4YGRKKRRQR3G4K16 (fluorescein-GGGGYGRKKRRQRRRGGGGKKKKKKKKKKKKKKKK) [Tat-K16]
oligonucleotide Cy3-O18 translocation through the cell membrane (SK-BR-3 cells [5]; 500 nM oligonucleotide and 80 nM peptide, fifteen minutes at 37° C.): facilitated
Cy3 label of the oligonucleotide in cells (SK-BR-3 cells [5]): located in the cytoplasm as well as in the nucleus
facilitating transport of FITC-O-24 across the cell membrane (HeLa cells [2]): most efficient
cell associated fluorescent intensity of O-83-FITC (FACS) (HeLa cells [6]; FACS): increased with increasing amounts of the 83-mer
cellular associated fluorescence of O-83-FITC (microscopy) (HeLa cells [6]; fluorescent microscopic analysis): increased cellular associated fluorescence
fluorescent intensity associated with FITC-O-24 (HeLa cells [7]): increased in the cells incubated with increased amounts of TAK16 peptide
fluorescence of avidin-FITC in cells, with oligonucleotide Bio-O-22 (HeLa cells [8]; TAK16 + Bio-O-22 + avidin-FITC, 20 minutes at 37° C.): much higher levels of fluorescence
fluorescence of avidin-FITC in cells, no oligonucleotide (HeLa cells [8]; TAK16 and avidin-FITC, without Bio-O-22): did not exhibit appreciable levels of fluorescence
localization of fluorescein labeled peptide in the cell (SK-BR-3 cells [4]): located throughout the cell
cells with uptake of large double stranded DNA molecules, linear and circular (HeLa cells [9]; TAK16 12 μM): ~100%
uptake of Cy3 labeled 400 bp DS DNA or plasmid DNA (fluorescence) (HeLa cells [9]; […], TAK16 12 μM or no peptide): obvious fluorescence
HPA uptake, with oligonucleotide Bio-O-22 (HeLa cells [10]): facilitated
intracellular transport of a 140 kD protein (beta-galactosidase) conjugated to an oligonucleotide [11]: able to facilitate intracellular transport
entry of peptide into the cell and localization (SK-BR-3 cells [12]): entered the cell and were located in both the cytoplasm and the nucleus

fluor-G4YGRKKRRQR (fluorescein-GGGGYGRKKRRQR) [Tat, reference compound]
Cy3 label of the oligonucleotide in cells (SK-BR-3 cells [5]): not detected

B1: fluor-G4YGRKKRRQR3G3MPNLWFL2FLGLVA2MQL5FL3F2LVYW DHFECSCTGLPF (peptide)
chain: fluor-GGGGYGRKKRRQRRRGGGMPNLWFLLFLGLVAAMQLLLLLFLLLFFLVYWDHFECSCTGLPF
localization of fluorescein labeled peptide in the cell (SK-BR-3 cells [4]): localized in a few foci at the cell surface
